# Literature values, collected in patent publication US8552052B2, “Use of diindolylmethane-related indoles for the treatment and prevention of respiratory syncytial virus associated conditions” (BioResponse, L.L.C., priority 2004, dated 2013).
# Tested on: RSV
# Settings: monthly intramuscular injections; cited from earlier work
substance,measurement,value
Palivizumab: IgG1 monoclonal antibody that selectively binds to the RSV surface glycoprotein F,reduction of the rate of hospitalization of at-risk infants,about 55%
